Assay results as given in patent publication US20240025919A1, “AZA-TETRACYCLIC OXAZEPINE COMPOUNDS AND USES THEREOF” (Genentech, Inc., priority 2022, published 2024).

Legend:
KRAS G12D = KRAS G12D (Homo sapiens (Human), UniProt P01116, G12D); experiment: KRAS G12D LoEnz Biochemical Assay, BODIPY-GDP Exchange TR-FRET (SOS1-mediated nucleotide exchange); conditions: read-out: KRas (G12D) GDP HTRF IC50
KRAS WT = KRAS WT (Homo sapiens (Human), UniProt P01116); experiment: KRAS WT Biochemical Assay, BODIPY-GDP Exchange TR-FRET (Example 502; 0.06 nM KRAS WT, 15 nM GDP, 300 nM SOS1, 120-minute incubation); conditions: read-out: KRas HTRF IC50
Sequence of KRAS WT (P01116-2 other isoform, or with tags, fused parts or gaps): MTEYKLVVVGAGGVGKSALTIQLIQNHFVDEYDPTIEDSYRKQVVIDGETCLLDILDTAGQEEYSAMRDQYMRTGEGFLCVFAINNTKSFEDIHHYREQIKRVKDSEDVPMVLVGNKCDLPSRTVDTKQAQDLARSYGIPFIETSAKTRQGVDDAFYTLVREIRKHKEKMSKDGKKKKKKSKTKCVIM
Protocol: Example 502: KRAS WT Biochemical Assay, BODIPY-GDP Exchange TR-FRET. Biochemical compound potencies are assessed by evaluating inhibition of SOS1-mediated nucleotide exchange in KRAS WT. In this assay, the SOS1-promoted exchange of fluorescently-labeled GDP (BOPIDY-GDP) is monitored by time-resolved fluorescence resonance energy transfer (TR-FRET). Compounds solubilized in DMSO are dispensed as concentration series into 384-well white assay plates. A preformed complex of 0.06 nM biotin-tagged recombinant human KRAS WT, 15 nM GDP and 0.06 nM terbium-labeled streptavidin (CisBIO) prepared in 10 uL/well assay buffer (20 mM HEPES, pH 7.5, 50 mM NaCl, 10 mM MgCl2, 0.01% Tween-20 and 1 mM dithiothreitol) is added and allowed to incubate for 10-minutes at room temperature. The reaction is initiated with the addition of 5 uL 300 nM recombinant human SOS1 and 300 nM BODIPY-GDP in assay buffer. After a 120-minute incubation, the fluorescence is measured with excitation at 337 nm and emission at 490 and 520 nm. The TR-FRET ratio is determined as the fluorescence at 520 nm divided by the fluorescence at 490 nm multiplied by 10,000. The results are normalized to percent inhibition based on control samples: DMSO (0% inhibition) and control compound at a concentration that inhibits completely (100% inhibition). The normalized TR-FRET results are plotted against compound concentration, and the data are fit to a 4-parameter Hill equation to determine the IC50 values.

Sequence of KRAS G12D (P01116-2 other isoform, or with tags, fused parts or gaps G12D): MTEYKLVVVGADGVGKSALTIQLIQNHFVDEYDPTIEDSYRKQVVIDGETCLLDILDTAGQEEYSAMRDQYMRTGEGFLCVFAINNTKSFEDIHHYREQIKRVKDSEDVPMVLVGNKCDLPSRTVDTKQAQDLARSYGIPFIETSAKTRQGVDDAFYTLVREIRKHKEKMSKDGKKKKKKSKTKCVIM

Question: For Cc1cc(N)cc(-c2nc3c4c(nc(OC[C@]56CCCN5CC(F)(F)C6)nc4c2F)N2C[C@H]4CC[C@H](N4)[C@H]2[C@H](C)O3)c1C(F)(F)F [Compound 69, 3-((5S,5aS,6S,9R)-12-(((R)-2,2-Difluorotetrahydro-1H-pyrrolizin-7a(5H)-yl)methoxy)-1-fluoro-5-methyl-5a,6,7,8,9,10-hexahydro-5H-4-oxa-3,10a,11,13,14-pentaaza-6,9-methanonaphtho[1,8-ab]heptalen-2-yl)-5-methyl-4-(trifluoromethyl)aniline], which IC50 (KRAS G12D) is on record?
Answer: 0.31 nM

Question: And the IC50 (KRAS WT)?
Answer: 40.9 nM

Question: For C[C@@H]1Oc2nc(-c3cc(N)c(F)cc3C(F)(F)F)c(F)c3nc(OC[C@@H]4CC[C@H]5COCCN54)nc(c23)N2C[C@H]3CC[C@H](N3)[C@@H]12 [Compound 70, 2-Fluoro-5-((5S,5aS,6S,9R)-1-fluoro-12-(((6S,8aS)-hexahydro-1H-pyrrolo[2,1-c][1,4]oxazin-6-yl)methoxy)-5-methyl-5a,6,7,8,9,10-hexahydro-5H-4-oxa-3,10a,11,13,14-pentaaza-6,9-methanonaphtho[1,8-ab]heptalen-2-yl)-4-(trifluoromethyl)aniline], which IC50 (KRAS G12D) is on record?
Answer: 0.71 nM

Question: What about the IC50 (KRAS WT) of the same compound?
Answer: 169 nM

Question: What does the source list for C[C@@H]1Oc2nc(-c3cc(N)ccc3C(F)(F)F)c(F)c3nc(OC[C@@]45CCCN4C[C@H](F)C5)nc(c23)N2C[C@H]3CC[C@H](N3)[C@@H]12 [Compound 72, 3-((5S,5aS,6S,9R)-1-Fluoro-12-(((2R,7aS)-2-fluorotetrahydro-1H-pyrrolizin-7a(5H)-yl)methoxy)-5-methyl-5a,6,7,8,9,10-hexahydro-5H-4-oxa-3,10a,11,13,14-pentaaza-6,9-methanonaphtho[1,8-ab]heptalen-2-yl)-4-(trifluoromethyl)aniline]?
Answer: IC50 (KRAS G12D): 0.28 nM; IC50 (KRAS WT): 12.9 nM

Question: For C[C@@H]1Oc2nc(-c3cc(N)c(F)cc3C(C)(F)F)c(F)c3nc(OC[C@@]45CCCN4C[C@H](F)C5)nc(c23)N2C[C@H]3CC[C@H](N3)[C@@H]12 [Compound 73, 4-(1,1-difluoroethyl)-2-fluoro-5-((5S,5aS,6S,9R)-1-fluoro-12-(((2R,7aS)-2-fluorotetrahydro-1H-pyrrolizin-7a(5H)-yl)methoxy)-5-methyl-5a,6,7,8,9,10-hexahydro-5H-4-oxa-3,10a,11,13,14-pentaaza-6,9-methanonaphtho[1,8-ab]heptalen-2-yl)aniline], which IC50 (KRAS G12D) is on record?
Answer: 2.6 nM

Question: And the IC50 (KRAS WT)?
Answer: 36.3 nM

Question: With Cc1cc(N)cc(-c2nc3c4c(nc(OC[C@@]56CCCN5C[C@H](F)C6)nc4c2F)N2C[C@H]4CC[C@H](N4)[C@H]2[C@H](C)O3)c1Cl [Compound 74, 4-Chloro-3-((5S,5aS,6S,9R)-1-fluoro-12-(((2R,7aS)-2-fluorotetrahydro-1H-pyrrolizin-7a(5H)-yl)methoxy)-5-methyl-5a,6,7,8,9,10-hexahydro-5H-4-oxa-3,10a,11,13,14-pentaaza-6,9-methanonaphtho[1,8-ab]heptalen-2-yl)-5-methylaniline] as the compound, how does the IC50 (KRAS G12D) read?
Answer: 0.33 nM

Question: What about the IC50 (KRAS WT) of the same compound?
Answer: 30.8 nM

Question: Which IC50 (KRAS G12D) does the source give for Cc1c(F)c(N)cc(-c2nc3c4c(nc(OC[C@@]56CCCN5C[C@H](F)C6)nc4c2F)N2C[C@H]4CC[C@H](N4)[C@H]2[C@H](C)O3)c1CC(F)F [Compound 75, 4-(2,2-Difluoroethyl)-2-fluoro-5-((5S,5aS,6S,9R)-1-fluoro-12-(((2R,7aS)-2-fluorotetrahydro-1H-pyrrolizin-7a(5H)-yl)methoxy)-5-methyl-5a,6,7,8,9,10-hexahydro-5H-4-oxa-3,10a,11,13,14-pentaaza-6,9-methanonaphtho[1,8-ab]heptalen-2-yl)-3-methylaniline] here?
Answer: 0.13 nM

Question: What about the IC50 (KRAS WT) of the same compound?
Answer: 11.8 nM

Question: What does the source list for Cc1c(F)c(N)cc(-c2nc3c4c(nc(OC[C@@]56CCCN5C[C@H](F)C6)nc4c2F)N2C[C@H]4CC[C@H](N4)[C@H]2[C@H](C)O3)c1Cl [Compound 76, 4-Chloro-2-fluoro-5-((5S,5aS,6S,9R)-1-fluoro-12-(((2R,7aS)-2-fluorotetrahydro-1H-pyrrolizin-7a(5H)-yl)methoxy)-5-methyl-5a,6,7,8,9,10-hexahydro-5H-4-oxa-3,10a,11,13,14-pentaaza-6,9-methanonaphtho[1,8-ab]heptalen-2-yl)-3-methylaniline]?
Answer: IC50 (KRAS G12D): 0.13 nM; IC50 (KRAS WT): 14.3 nM

Question: C[C@@H]1Oc2nc(-c3cc(N)cc(F)c3C(F)(F)F)c(F)c3nc(OC[C@@H]4CC[C@H]5COCCN54)nc(c23)N2C[C@H]3CC[C@H](N3)[C@@H]12 [Compound 77, 3-Fluoro-5-((5S,5aS,6S,9R)-1-fluoro-12-(((6S,8aS)-hexahydro-1H-pyrrolo[2,1-c][1,4]oxazin-6-yl)methoxy)-5-methyl-5a,6,7,8,9,10-hexahydro-5H-4-oxa-3,10a,11,13,14-pentaaza-6,9-methanonaphtho[1,8-ab]heptalen-2-yl)-4-(trifluoromethyl)aniline] was tested. Which IC50 (KRAS G12D) did it give?
Answer: 0.24 nM

Question: What about the IC50 (KRAS WT) of the same compound?
Answer: 21.1 nM

Question: Which IC50 (KRAS G12D) does the source give for C[C@@H]1Oc2nc(-c3cc(O)cc4ccc(F)c(F)c34)c(F)c3nc(OC[C@@]45CCCN4C[C@H](F)C5)nc(c23)N2C[C@H]3CC[C@H](N3)[C@@H]12 [Compound 82, 5,6-Difluoro-4-((5S,5aS,6S,9aR)-1-fluoro-12-(((2R,7aS)-2-fluorotetrahydro-1H-pyrrolizin-7a(5H)-yl)methoxy)-5-methyl-5a,6,7,8,9,10-hexahydro-5H-4-oxa-3,10a,11,13,14-pentaaza-6,9-methanonaphtho[1,8-ab]heptalen-2-yl)naphthalen-2-ol] here?
Answer: 360 nM

Question: What about the IC50 (KRAS WT) of the same compound?
Answer: 23500 nM

Question: Which results are given for C[C@@H]1Oc2nc(-c3cc(N)cc4c3CCC4)c(F)c3nc(OC[C@@]45CCCN4C[C@H](F)C5)nc(c23)N2C[C@H]3CC[C@H](N3)[C@@H]12 [Compound 83, 7-((5S,5aS,6S,9R)-1-Fluoro-12-(((2R,7aS)-2-fluorotetrahydro-1H-pyrrolizin-7a(5H)-yl)methoxy)-5-methyl-5a,6,7,8,9,10-hexahydro-5H-4-oxa-3,10a,11,13,14-pentaaza-6,9-methanonaphtho[1,8-ab]heptalen-2-yl)-2,3-dihydro-1H-inden-5-amine]?
Answer: IC50 (KRAS G12D): 1.15 nM; IC50 (KRAS WT): 123 nM

Question: For C[C@@H]1Oc2nc(-c3nc(N)c(F)cc3C(F)(F)F)c(F)c3nc(OC[C@@]45CCCN4CC4(CC4(F)F)C5)nc(c23)N2C[C@H]3CC[C@H](N3)[C@@H]12 (stereo partly drawn) [Compound 86, 6-((5S,5aS,6S,9R)-12-(((7a′S)-2,2-difluorodihydro-1′H,3′H-spiro-[cyclopropane-1,2′-pyrrolizin]-7a′(5′H)-yl)methoxy)-1-fluoro-5-methyl-5a,6,7,8,9,10-hexahydro-5H-4-oxa-3,10a,11,13,14-pentaaza[6,9]methanonaphtho[1,8-ab]heptalen-2-yl)-3-fluoro-5-(trifluoromethyl)pyridin-2-amine], which IC50 (KRAS G12D) is on record?
Answer: 4.67 nM

Question: And the IC50 (KRAS WT)?
Answer: 248 nM

Question: What does the source list for COc1cc2ccccc2c(-c2nc3c4c(nc(OC[C@]56CCN5CC(F)(F)C6)nc4c2F)N2C[C@H]4CC[C@H](N4)[C@H]2[C@H](C)O3)n1 [Compound 89, (5S,5aS,6S,9R)-12-(((R)-3,3-Difluoro-1-azabicyclo[3.2.0]heptan-5-yl)methoxy)-1-fluoro-2-(3-methoxyisoquinolin-1-yl)-5-methyl-5a,6,7,8,9,10-hexahydro-5H-4-oxa-3,10a,11,13,14-pentaaza-6,9-methanonaphtho[1,8-ab]heptalene]?
Answer: IC50 (KRAS G12D): 912 nM; IC50 (KRAS WT): 1650 nM

Question: How did the IC50 (KRAS G12D) turn out when C[C@@H]1Oc2nc(-c3c(C(F)(F)F)cc(F)c(N)c3F)c(F)c3nc(OC[C@@]45CCCN4C[C@H](F)C5)nc(c23)N2C[C@H]3CC[C@H](N3)[C@@H]12 [Compound 90, 2,6-Difluoro-3-((5S,5aS,6S,9R)-1-fluoro-12-(((2R,7aS)-2-fluorotetrahydro-1H-pyrrolizin-7a(5H)-yl)methoxy)-5-methyl-5a,6,7,8,9,10-hexahydro-5H-4-oxa-3,10a,11,13,14-pentaaza-6,9-methanonaphtho[1,8-ab]heptalen-2-yl)-4-(trifluoromethyl)aniline] was run?
Answer: 0.47 nM

Question: And the IC50 (KRAS WT)?
Answer: 71.6 nM

Question: For Cc1c(F)c(N)c(F)c(-c2nc3c4c(nc(OC[C@@]56CCCN5C[C@H](F)C6)nc4c2F)N2C[C@H]4CC[C@H](N4)[C@H]2[C@H](C)O3)c1C(F)(F)F [Compound 91, 2,6-Difluoro-3-((5S,5aS,6S,9R)-1-fluoro-12-(((2R,7aS)-2-fluorotetrahydro-1H-pyrrolizin-7a(5H)-yl)methoxy)-5-methyl-5a,6,7,8,9,10-hexahydro-5H-4-oxa-3,10a,11,13,14-pentaaza-6,9-methanonaphtho[1,8-ab]heptalen-2-yl)-5-methyl-4-(trifluoromethyl)aniline], which IC50 (KRAS G12D) is on record?
Answer: 0.182 nM

Question: What about the IC50 (KRAS WT) of the same compound?
Answer: 5.71 nM

Question: With Cc1c(F)c(N)c(F)c(-c2nc3c4c(nc(OC[C@@H]5CC[C@H]6COCCN65)nc4c2F)N2C[C@H]4CC[C@H](N4)[C@H]2[C@H](C)O3)c1C(F)(F)F [Compound 96, 2,6-Difluoro-3-((5S,5aS,6S,9R)-1-fluoro-12-(((6S,8aS)-hexahydro-1H-pyrrolo[2,1-c][1,4]oxazin-6-yl)methoxy)-5-methyl-5a,6,7,8,9,10-hexahydro-5H-4-oxa-3,10a,11,13,14-pentaaza-6,9-methanonaphtho[1,8-ab]heptalen-2-yl)-5-methyl-4-(trifluoromethyl)aniline] as the compound, how does the IC50 (KRAS G12D) read?
Answer: 0.433 nM

Question: And the IC50 (KRAS WT)?
Answer: 75.8 nM
